For 51 molecules, IC50 results are on record in patent publication US20120258960A1, “NOVEL MULTIFUNCTIONAL PEPTIDASE INHIBITORS, ESPECIALLY FOR MEDICAL USE” (IMTM GMBH, priority 2009, published 2012).

Experiment [1] addresses human recombinant Aminopeptidase N (Homo sapiens, UniProt P15144). Briefly: Measurement of APN activity (fluorogenic substrate (Ala)2-R110). It counts as biochemical. Particulars: human recombinant APN approx. 5 nM, substrate 0.5 μM, pH 7.5. The method, then:
Inhibitory effects of test items on the enzymatic activity of human recombinant Aminopeptidase N (final concentration approx. 5 nM) were assessed by using the fluorogenic substrate bis-(L-alanyl)-Rhodamine-110 (bis-trifluoracetate, abbreviation (Ala)2-R110) at a final concentration of 0.5 μM. The assay was performed in 0.05 M TRIS/HCl buffer pH 7.5, supplemented with 0.05% Triton (v/v), 0.05% BSA (w/v), 2 mM MgCl2.
The assay was performed in white microtitre plates for fluorescence measurements.
As controls, (Ala)2-R110 hydrolyzing activity in the absence of any test item as well as the spontaneous substrate hydrolysis was determined.
The release of the fluorescent hydrolysis product Rhodamine 110 was measured at an excitation wavelength of 485 nm and an emission wavelength of 530 nm by using a microtitre fluorescence reader immediately after substrate addition as well as after 30, 60 and 120 min.

The target of experiment [2] is purified, recombinant human DPIV (Homo sapiens, UniProt P27487). Nature of the experiment: Measurement of DPIV activity (fluorogenic substrate (Ala-Pro)2-R110).
Chain of purified, recombinant human DPIV (P27487 whole entry): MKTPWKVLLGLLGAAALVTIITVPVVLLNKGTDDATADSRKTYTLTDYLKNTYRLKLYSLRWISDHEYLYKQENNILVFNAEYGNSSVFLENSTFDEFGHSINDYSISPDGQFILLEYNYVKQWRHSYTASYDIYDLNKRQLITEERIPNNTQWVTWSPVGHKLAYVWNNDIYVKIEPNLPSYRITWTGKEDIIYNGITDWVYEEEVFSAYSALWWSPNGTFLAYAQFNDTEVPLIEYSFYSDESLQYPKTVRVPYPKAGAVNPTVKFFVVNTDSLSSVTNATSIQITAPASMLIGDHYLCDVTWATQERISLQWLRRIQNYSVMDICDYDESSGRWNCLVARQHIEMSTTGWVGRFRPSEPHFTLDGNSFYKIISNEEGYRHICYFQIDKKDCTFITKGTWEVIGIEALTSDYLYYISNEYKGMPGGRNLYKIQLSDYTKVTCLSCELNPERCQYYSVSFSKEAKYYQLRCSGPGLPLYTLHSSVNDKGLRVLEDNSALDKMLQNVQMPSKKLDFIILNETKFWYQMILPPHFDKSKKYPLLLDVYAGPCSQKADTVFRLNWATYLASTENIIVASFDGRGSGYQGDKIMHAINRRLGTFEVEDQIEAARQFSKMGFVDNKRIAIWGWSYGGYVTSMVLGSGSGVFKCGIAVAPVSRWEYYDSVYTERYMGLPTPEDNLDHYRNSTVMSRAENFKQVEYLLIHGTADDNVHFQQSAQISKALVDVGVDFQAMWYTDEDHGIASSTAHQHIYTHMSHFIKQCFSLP
Experimental: The enzymatic activity of DPIV was assessed by the hydrolysis of the fluorogenic substrate bis-(L-alanyl-prolyl)-Rhodamin-110 (bis-trifluoracetate, abbreviation (Ala-Pro)2-R110). The final substrate concentration was 0.5 μM.
The assay was performed in white microtitre plates for fluorescence measurements. The test items, substrate and enzyme were diluted in assay buffer. […] As controls, the DPIV activity in the absence of test items as well as the spontaneous hydrolysis of the substrate was determined.

Chain of human recombinant Aminopeptidase N (P15144 whole entry): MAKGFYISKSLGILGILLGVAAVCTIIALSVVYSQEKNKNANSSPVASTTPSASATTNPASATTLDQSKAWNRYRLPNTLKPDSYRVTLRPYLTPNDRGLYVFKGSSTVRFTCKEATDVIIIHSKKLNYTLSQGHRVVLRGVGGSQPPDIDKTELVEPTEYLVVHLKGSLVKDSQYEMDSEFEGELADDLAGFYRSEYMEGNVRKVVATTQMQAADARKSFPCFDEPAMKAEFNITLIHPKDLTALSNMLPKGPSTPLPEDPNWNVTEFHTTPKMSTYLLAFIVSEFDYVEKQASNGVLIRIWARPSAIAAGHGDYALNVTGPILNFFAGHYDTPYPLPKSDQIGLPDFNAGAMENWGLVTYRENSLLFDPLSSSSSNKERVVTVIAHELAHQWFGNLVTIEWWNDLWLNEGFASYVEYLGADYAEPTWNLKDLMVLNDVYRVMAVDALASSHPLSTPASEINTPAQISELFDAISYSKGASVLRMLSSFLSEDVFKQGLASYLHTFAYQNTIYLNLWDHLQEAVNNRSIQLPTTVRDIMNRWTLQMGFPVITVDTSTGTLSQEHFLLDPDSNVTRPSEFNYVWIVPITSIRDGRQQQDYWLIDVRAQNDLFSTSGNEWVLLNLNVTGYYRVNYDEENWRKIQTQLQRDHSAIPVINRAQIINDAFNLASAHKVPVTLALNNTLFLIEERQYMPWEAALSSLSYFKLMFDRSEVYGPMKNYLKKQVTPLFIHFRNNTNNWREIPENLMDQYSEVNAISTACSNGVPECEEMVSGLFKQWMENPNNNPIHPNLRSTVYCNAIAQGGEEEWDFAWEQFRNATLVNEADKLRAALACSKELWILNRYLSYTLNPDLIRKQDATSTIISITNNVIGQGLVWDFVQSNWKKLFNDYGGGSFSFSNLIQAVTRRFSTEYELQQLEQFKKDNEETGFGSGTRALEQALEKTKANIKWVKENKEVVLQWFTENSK

On to `CCCCCCCCCCCCCCCCOC(C(=O)NCC(C)(C)CNC(=O)CC(N)Cc1cc(F)ccc1F)C(N)Cc1ccccc1` (stereo not drawn), for which the IC50 (as a rule, the concentration at which inhibition is half-maximal) in experiment [1] is greater than 50 µM; in experiment [2], 25000 nM.
The like results for `CCCCCCCCOC(C(=O)NCC(C)(C)CNC(=O)CC(N)Cc1cc(F)ccc1F)C(N)Cc1ccccc1` (stereo not drawn) were, in that order, greater than 50 µM and 14000 nM.
For the molecule `NC(CC(=O)NCCNC(=O)C(O)C(N)Cc1ccccc1)Cc1ccc2ccccc2c1` (stereo not drawn) [drawing 13], the values for the IC50 in experiment [1] and in experiment [2] were 1.5 µM and 28000 nM, respectively.
As for `NC(CC(=O)NCCNC(=O)C(O)C(N)Cc1ccccc1)Cc1ccccc1` (stereo not drawn) [drawing 14], the results for the IC50 in experiment [1] and in experiment [2] were 2.9 µM and 800 nM, respectively.
For the molecule `NC(CC(=O)NCCNC(=O)C(O)C(N)Cc1ccccc1)Cc1cc(F)ccc1F` (stereo not drawn) [drawing 15], the IC50 in experiment [1] came to 5.6 µM; in experiment [2], 160 nM.
For `NC(CC(=O)N1CCN(C(=O)CC(O)C(N)Cc2ccccc2)CC1)Cc1ccccc1` (stereo not drawn) [drawing 16] the same measures were greater than 50 µM and 900 nM.
For `NC(CC(=O)N1CCN(C(=O)C(O)C(N)Cc2ccccc2)CC1)Cc1ccccc1` (stereo not drawn) [drawing 17] the same measures were 27 µM and 800 nM.
The like results for `NC(CC(=O)NCCNC(=O)CC(O)C(N)Cc1ccccc1)Cc1ccccc1` (stereo not drawn) [drawing 18] were, in that order, greater than 50 µM and 1000 nM.
With `C[C@@H]1CN(C(=O)CC(O)C(N)Cc2ccccc2)C[C@H](C)N1C(=O)CC(N)Cc1ccccc1` (stereo partly drawn) [drawing 19], the results for the IC50 in experiment [1] and in experiment [2] were 22 µM and 280 nM, respectively.
For `CC(C)(NC(=O)CC(N)Cc1ccccc1)C(C)(C)NC(=O)C(O)C(N)Cc1ccccc1` (stereo not drawn) [drawing 20] the same measures were 16.7 µM and 13800 nM.
For `CC(C)(CNC(=O)CC(N)Cc1ccccc1)CNC(=O)C(O)C(N)Cc1ccccc1` (stereo not drawn) [drawing 21] the same measures were 0.18 µM and 2000 nM.
The like results for `CCC(CC)(CNC(=O)CC(N)Cc1ccccc1)CNC(=O)C(O)C(N)Cc1ccccc1` (stereo not drawn) [drawing 22] were, in that order, 2.8 µM and 2600 nM.
Regarding `NC(CC(=O)NCCCCNC(=O)C(O)C(N)Cc1ccccc1)Cc1ccccc1` (stereo not drawn) [drawing 23], the IC50 in experiment [1] was determined as 0.18 µM; in experiment [2], 2700 nM.
The like results for `CC(C)(CNC(=O)CC(N)Cc1ccccc1)CNC(=O)CC(O)C(N)Cc1ccccc1` (stereo not drawn) [drawing 24] were, in that order, greater than 25 µM and 2200 nM.
Regarding `NC(CC(=O)NCCCCNC(=O)C(O)C(N)Cc1ccccc1)Cc1cc(F)ccc1F` (stereo not drawn) [drawing 25], the IC50 was 0.14 µM in experiment [1] and 80 nM in experiment [2].
The like results for `CC(C)(CNC(=O)CC(N)Cc1cc(F)ccc1F)CNC(=O)C(O)C(N)Cc1ccccc1` (stereo not drawn) [drawing 26] were, in that order, 0.06 µM and 100 nM.
In the case of `NC(CC(=O)NCCCCCNC(=O)C(O)C(N)Cc1ccccc1)Cc1ccccc1` (stereo not drawn) [drawing 27], the concentration for half-maximal inhibition (IC50) in experiment [1] was 0.12 µM; in experiment [2] it was 2670 nM.
As to `NC(CC(=O)NCCCCCCNC(=O)C(O)C(N)Cc1ccccc1)Cc1ccccc1` (stereo not drawn) [drawing 28], the IC50 stood at 0.41 µM in experiment [1] and 1200 nM in experiment [2].
Consider `NC(CC(=O)NCC1(CNC(=O)C(O)C(N)Cc2ccccc2)CCC1)Cc1ccccc1` (stereo not drawn) [drawing 29], for which the IC50 amounted to 0.191 µM in experiment [1] and 1670 nM in experiment [2].
The like results for `CC(C)(CNC(=O)CC(N)C(=O)N1CCSC1)CNC(=O)C(O)C(N)Cc1ccccc1` (stereo not drawn) [drawing 30] were, in that order, 2 µM and 2120 nM.
For `NC(CC(=O)NCCCNC(=O)C(O)C(N)Cc1ccccc1)Cc1cc(F)ccc1F` (stereo not drawn) [drawing 31] the same measures were 0.02 µM and 500 nM.
Consider `CN(CCCN(C)C(=O)C(O)C(N)Cc1ccccc1)C(=O)CC(N)Cc1cc(F)ccc1F` (stereo not drawn) [drawing 32], for which the IC50 was found to be 8.5 µM in experiment [1] and 178 nM in experiment [2].
For `CCCCCCCC(=O)NC(CC(=O)NCC(C)(C)CNC(=O)C(O)C(Cc1ccccc1)NC(=O)CCCCCCC)Cc1cc(F)ccc1F` (stereo not drawn) [drawing 33] the same measures were greater than 50 µM and greater than 50000 nM.
The like results for `CC(C)(CNC(=O)CC(CN)Cc1ccccc1)CNC(=O)C(O)C(N)Cc1ccccc1` (stereo not drawn) [drawing 34] were, in that order, 0.15 µM and greater than 50000 nM.
The like results for `NC(CC(=O)NC(CCCNC(=O)C(O)C(N)Cc1ccccc1)C(=O)O)Cc1cc(F)ccc1F` (stereo not drawn) [drawing 35] were, in that order, 6.2 µM and 200 nM.
As to `CC(C)(CCNC(=O)CC(N)Cc1cc(F)ccc1F)CNC(=O)C(O)C(N)Cc1ccccc1` (stereo not drawn) [drawing 36], the IC50 was greater than 50 µM in experiment [1] and 100 nM in experiment [2].
The like results for `CN(CCCNC(=O)C(O)C(N)Cc1ccccc1)C(=O)CC(N)Cc1cc(F)ccc1F` (stereo not drawn) [drawing 37] were, in that order, 0.7 µM and 72 nM.
The like results for `CCCC(=O)NC(CC(=O)NCC(C)(C)CNC(=O)C(O)C(Cc1ccccc1)NC(=O)CCC)Cc1cc(F)ccc1F` (stereo not drawn) [drawing 38] were, in that order, greater than 50 µM and greater than 50000 nM.
Take `NC(CC(=O)Nc1ccc(NC(=O)C(O)C(N)Cc2ccccc2)cc1)Cc1cc(F)ccc1F` (stereo not drawn) [drawing 39]: in experiment [1], the IC50 amounted to 0.02 µM.
In the case of `CN(CCCNC(=O)CC(N)Cc1cc(F)ccc1F)C(=O)C(O)C(N)Cc1ccccc1` (stereo not drawn) [drawing 40], the values for the IC50 in experiment [1] and in experiment [2] were 15.4 µM and 200 nM, respectively.
The like results for `CCCCCCCC(=O)OC(C(=O)NCC(C)(C)CNC(=O)CC(N)Cc1cc(F)ccc1F)C(N)Cc1ccccc1` (stereo not drawn) [drawing 41] were, in that order, 0.2 µM and 300 nM.
For `NC(CC(=O)NCCCCNC(=O)C(O)C(N)Cc1ccccc1)C(=O)N1CCSC1` (stereo not drawn) [drawing 42] the same measures were greater than 50 µM and 1700 nM.
For `CCCCCCCCCCCCCCCC(=O)OC(C(=O)NCC(C)(C)CNC(=O)CC(N)Cc1cc(F)ccc1F)C(N)Cc1ccccc1` (stereo not drawn) [drawing 43] the same measures were 0.03 µM and 60 nM.
Take `CCCCCCCC(=O)OC(C(=O)N(C)CCCNC(=O)CC(N)Cc1cc(F)ccc1F)C(N)Cc1ccccc1` (stereo not drawn) [drawing 44]: the half-maximal inhibitory concentration (IC50) in experiment [1] is greater than 50 µM; in experiment [2], 20 nM.
For `NC(CC(=O)NCCCCNC(=O)C(O)C(N)Cc1ccc(C(=O)O)cc1)Cc1cc(F)ccc1F` (stereo not drawn) [drawing 45] the same measures were greater than 50 µM and 470 nM.
The like results for `CCCCCCCCCCCCCC(=O)OC(C(=O)NCC(C)(C)CNC(=O)CC(N)Cc1cc(F)ccc1F)C(N)Cc1ccccc1` (stereo not drawn) [drawing 46] were, in that order, 21 µM and 1000 nM.
For the molecule `CCCCCCCCCCCC(=O)OC(C(=O)NCC(C)(C)CNC(=O)CC(N)Cc1cc(F)ccc1F)C(N)Cc1ccccc1` (stereo not drawn) [drawing 47], the IC50 in experiment [1] is 18 µM; in experiment [2] it was 600 nM.
For `CCCCCCCCCC(=O)OC(C(=O)NCC(C)(C)CNC(=O)CC(N)Cc1cc(F)ccc1F)C(N)Cc1ccccc1` (stereo not drawn) [drawing 48] the same measures were greater than 50 µM and 200 nM.
The like results for `CC(C)(CNC(=O)CC(N)Cc1cc(F)ccc1F)CNC(=O)C(OC(=O)CCCc1ccccc1)C(N)Cc1ccccc1` (stereo not drawn) [drawing 49] were, in that order, 15 µM and 300 nM.
Take `CCCCCCCC(=O)OC(C(=O)NCCCCNC(=O)CC(N)Cc1cc(F)ccc1F)C(N)Cc1ccccc1` (stereo not drawn) [drawing 50]: the IC50 is greater than 50 µM in experiment [1] and 120 nM in experiment [2].
For `CCCCCCCCCCCCCCCC(=O)OC(C(=O)NCCCCNC(=O)CC(N)Cc1cc(F)ccc1F)C(N)Cc1ccccc1` (stereo not drawn) [drawing 53], the IC50 in experiment [2] stood at 8000 nM.
The same measure, in the same setting: in the case of `CCCC(=O)OC(C(=O)NCC(C)(C)CNC(=O)CC(N)Cc1cc(F)ccc1F)C(N)Cc1ccccc1` (stereo not drawn) [drawing 54] it was 80 nM.
For `CCCCCC(=O)OC(C(=O)NCC(C)(C)CNC(=O)CC(N)Cc1cc(F)ccc1F)C(N)Cc1ccccc1` (stereo not drawn) [drawing 55], the IC50 turned out to be 1.9 µM in experiment [1] and 30 nM in experiment [2].
For `CC(C)(CNC(=O)C(O)C(N)Cc1ccccc1)CNC(=O)C(CC(=O)O)C(N)Cc1cc(F)ccc1F` (stereo not drawn) [drawing 56] the same measures were 1.4 µM and 3700 nM.
`NC(CC(=O)NCC1(CNC(=O)C(O)C(N)Cc2ccccc2)CCC1)Cc1cc(F)ccc1F` (stereo not drawn) [drawing 57]: the IC50 in experiment [1] was 0.07 µM; in experiment [2] it was 100 nM.
On to `CCCCCCCCCCCCCC(=O)NC(CC(=O)NCC(C)(C)CNC(=O)C(O)C(Cc1ccccc1)NC(=O)CCCCCCCCCCCCC)Cc1cc(F)ccc1F` (stereo not drawn) [drawing 58], for which the IC50 in experiment [1] was found to be 32 µM; in experiment [2] it was 5500 nM.
As for `CCC(CC)(CNC(=O)CC(N)Cc1cc(F)ccc1F)CNC(=O)C(O)C(N)Cc1ccccc1` (stereo not drawn) [drawing 59], the figures for the half-maximal inhibitory concentration (IC50) in experiment [1] and in experiment [2] were 0.3 µM and 100 nM, respectively.
For `CC(C(=O)NCC(C)(C)CNC(=O)C(O)C(N)Cc1ccccc1)C(N)Cc1cc(F)ccc1F` (stereo not drawn) [drawing 60] the same measures were 0.87 µM and 450 nM.
The like results for `NC(CC(=O)NCCCCNC(=O)C(O)C(N)Cc1ccc(Br)cc1)Cc1cc(F)ccc1F` (stereo not drawn) [drawing 61] were, in that order, 0.06 µM and 100 nM.
The like results for `CCCCCCCCCCCCCCCC(=O)NC(CC(=O)NCC(C)(C)CNC(=O)C(O)C(Cc1ccccc1)NC(=O)CCCCCCCCCCCCCCC)Cc1cc(F)ccc1F` (stereo not drawn) [drawing 62] were, in that order, greater than 50 µM and greater than 50000 nM.
In the case of `NC(CC(=O)NC1CCCC(NC(=O)C(O)C(N)Cc2ccccc2)C1)Cc1cc(F)ccc1F` (stereo not drawn) [drawing 63], the half-maximal inhibitory concentration (IC50) in experiment [1] came out at 0.03 µM; in experiment [2], 120 nM.
